Reference: PubChem BioAssay (NCI)
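How tested: cells in 96-well plates exposed to compound for 48 hours at five concentrations. TGI: total growth inhibition.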

What was measured:
Test in all cases: NCI-60 cell line screen, 48 h
HOP-62 NSCLC = tested on: HOP-62 NSCLC
LOX IMVI melanoma = tested on: LOX IMVI melanoma
NCI-H23 lung = tested on: NCI-H23 lung
SN12C renal = tested on: SN12C renal
OVCAR-4 ovarian = tested on: OVCAR-4 ovarian
RXF 393 renal = tested on: RXF 393 renal
A549 NSCLC = tested on: A549 NSCLC
K-562 leukemia = tested on: K-562 leukemia
HOP-92 NSCLC = tested on: HOP-92 NSCLC
UACC-62 melanoma = tested on: UACC-62 melanoma
PC-3 prostate = tested on: PC-3 prostate
DU-145 prostate = tested on: DU-145 prostate
SF-539 CNS = tested on: SF-539 CNS
EKVX NSCLC = tested on: EKVX NSCLC
SK-MEL-2 melanoma = tested on: SK-MEL-2 melanoma
KM12 colon = tested on: KM12 colon
RPMI-8226 leukemia = tested on: RPMI-8226 leukemia
HCT-116 colon = tested on: HCT-116 colon
HCC-2998 colon = tested on: HCC-2998 colon
ACHN renal = tested on: ACHN renal
T-47D breast = tested on: T-47D breast
SNB-75 CNS = tested on: SNB-75 CNS
NCI-H522 lung = tested on: NCI-H522 lung
MALME-3M melanoma = tested on: MALME-3M melanoma
HL-60(TB) leukemia = tested on: HL-60(TB) leukemia
NCI-H460 lung = tested on: NCI-H460 lung
MOLT-4 leukemia = tested on: MOLT-4 leukemia
OVCAR-3 ovarian = tested on: OVCAR-3 ovarian
HT29 colon = tested on: HT29 colon
786-0 renal = tested on: 786-0 renal
SF-268 CNS = tested on: SF-268 CNS
M14 melanoma = tested on: M14 melanoma
CAKI-1 renal = tested on: CAKI-1 renal
MDA-N = tested on: MDA-N
MDA-MB-435 = tested on: MDA-MB-435
BT-549 breast = tested on: BT-549 breast
CCRF-CEM leukemia = tested on: CCRF-CEM leukemia
HS 578T breast = tested on: HS 578T breast
COLO 205 colon = tested on: COLO 205 colon
OVCAR-8 ovarian = tested on: OVCAR-8 ovarian
SW-620 colon = tested on: SW-620 colon
UO-31 renal = tested on: UO-31 renal
SK-OV-3 ovarian = tested on: SK-OV-3 ovarian
U251 CNS = tested on: U251 CNS
SK-MEL-28 melanoma = tested on: SK-MEL-28 melanoma
NCI-H226 lung = tested on: NCI-H226 lung
SNB-19 CNS = tested on: SNB-19 CNS
MDA-MB-231 breast = tested on: MDA-MB-231 breast
HCT-15 colon = tested on: HCT-15 colon
IGROV1 ovarian = tested on: IGROV1 ovarian
OVCAR-5 ovarian = tested on: OVCAR-5 ovarian
NCI/ADR-RES ovarian = tested on: NCI/ADR-RES ovarian
SF-295 CNS = tested on: SF-295 CNS
UACC-257 melanoma = tested on: UACC-257 melanoma
MCF7 breast = tested on: MCF7 breast
A498 renal = tested on: A498 renal
TK-10 renal = tested on: TK-10 renal
SK-MEL-5 melanoma = tested on: SK-MEL-5 melanoma
SR leukemia = tested on: SR leukemia

Work on `COc1c(-c2nc3nc(N4CCN(C)CC4)ccc3[nH]2)cc(OC)c2c1nc(CO)n2C` yielded a TGI (HOP-62 NSCLC) greater than 100 µM, a TGI (LOX IMVI melanoma) greater than 100 µM and a TGI (NCI-H23 lung) greater than 100 µM. It also gave a TGI (SN12C renal) greater than 100 µM, a TGI (OVCAR-4 ovarian) greater than 100 µM and a TGI (RXF 393 renal) greater than 100 µM. It also gave a TGI (A549 NSCLC) greater than 100 µM, a TGI (K-562 leukemia) greater than 100 µM and a TGI (HOP-92 NSCLC) greater than 100 µM. It also gave a TGI (UACC-62 melanoma) greater than 100 µM, a TGI (PC-3 prostate) greater than 100 µM and a TGI (DU-145 prostate) greater than 100 µM. For the same molecule, the TGI (SF-539 CNS) was greater than 100 µM, the TGI (EKVX NSCLC) was greater than 100 µM and the TGI (SK-MEL-2 melanoma) was greater than 100 µM. It also gave a TGI (KM12 colon) greater than 100 µM, a TGI (RPMI-8226 leukemia) greater than 100 µM and a TGI (HCT-116 colon) greater than 100 µM. For the same molecule, the TGI (HCC-2998 colon) was greater than 100 µM, the TGI (ACHN renal) was greater than 100 µM and the TGI (T-47D breast) was greater than 100 µM. It also gave a TGI (SNB-75 CNS) greater than 100 µM, a TGI (NCI-H522 lung) greater than 100 µM and a TGI (MALME-3M melanoma) greater than 100 µM. For the same molecule, the TGI (HL-60(TB) leukemia) was greater than 100 µM, the TGI (NCI-H460 lung) was greater than 100 µM and the TGI (MOLT-4 leukemia) was greater than 100 µM. For the same molecule, the TGI (OVCAR-3 ovarian) was greater than 100 µM, the TGI (HT29 colon) was greater than 100 µM and the TGI (786-0 renal) was greater than 100 µM. For the same molecule, the TGI (SF-268 CNS) was greater than 100 µM, the TGI (M14 melanoma) was greater than 100 µM and the TGI (CAKI-1 renal) was greater than 100 µM. It also gave a TGI (MDA-N) greater than 100 µM, a TGI (MDA-MB-435) greater than 100 µM and a TGI (BT-549 breast) greater than 100 µM. For the same molecule, the TGI (CCRF-CEM leukemia) was greater than 100 µM, the TGI (HS 578T breast) was greater than 100 µM and the TGI (COLO 205 colon) was greater than 100 µM. For the same molecule, the TGI (OVCAR-8 ovarian) was greater than 100 µM, the TGI (SW-620 colon) was greater than 100 µM and the TGI (UO-31 renal) was greater than 100 µM. For the same molecule, the TGI (SK-OV-3 ovarian) was greater than 100 µM, the TGI (U251 CNS) was greater than 100 µM and the TGI (SK-MEL-28 melanoma) was greater than 100 µM. For the same molecule, the TGI (NCI-H226 lung) was greater than 100 µM, the TGI (SNB-19 CNS) was greater than 100 µM and the TGI (MDA-MB-231 breast) was greater than 100 µM. It also gave a TGI (HCT-15 colon) greater than 100 µM, a TGI (IGROV1 ovarian) greater than 100 µM and a TGI (OVCAR-5 ovarian) greater than 100 µM. The TGI (NCI/ADR-RES ovarian) was greater than 100 µM, the TGI (SF-295 CNS) was greater than 100 µM and the TGI (UACC-257 melanoma) was greater than 100 µM.

In the case of `N=C1N(c2ccccc2)C(=S)C(=Nc2ccccc2)N1c1ccccc1`, the TGI (HOP-62 NSCLC) is reported as 34.1 µM, the TGI (LOX IMVI melanoma) is reported as 5.14 µM and the TGI (NCI-H23 lung) is reported as 18 µM. The TGI (SN12C renal) was 27.8 µM, the TGI (OVCAR-4 ovarian) was 26.8 µM and the TGI (RXF 393 renal) was 25 µM. For the same molecule, the TGI (A549 NSCLC) was 42.1 µM, the TGI (K-562 leukemia) was 9.59 µM and the TGI (HOP-92 NSCLC) was 22.9 µM. The TGI (UACC-62 melanoma) was 13.5 µM, the TGI (PC-3 prostate) was 24.8 µM and the TGI (DU-145 prostate) was 31.2 µM. For the same molecule, the TGI (SF-539 CNS) was 24.9 µM, the TGI (EKVX NSCLC) was 53.1 µM and the TGI (MCF7 breast) was 3.46 µM. For the same molecule, the TGI (SK-MEL-2 melanoma) was 12.4 µM, the TGI (KM12 colon) was 27.2 µM and the TGI (RPMI-8226 leukemia) was 13.9 µM. The TGI (HCT-116 colon) was 7.26 µM, the TGI (HCC-2998 colon) was 30.7 µM and the TGI (ACHN renal) was 20.6 µM. For the same molecule, the TGI (A498 renal) was 31.8 µM, the TGI (T-47D breast) was 9.21 µM and the TGI (SNB-75 CNS) was 29.4 µM. It also gave a TGI (NCI-H522 lung) of 7.72 µM, a TGI (MALME-3M melanoma) of 26.6 µM and a TGI (TK-10 renal) of 28.2 µM. For the same molecule, the TGI (HL-60(TB) leukemia) was 10.9 µM, the TGI (NCI-H460 lung) was 31 µM and the TGI (MOLT-4 leukemia) was 7.55 µM. For the same molecule, the TGI (OVCAR-3 ovarian) was 9.55 µM, the TGI (HT29 colon) was 18.3 µM and the TGI (786-0 renal) was 22.2 µM. The TGI (SF-268 CNS) was 29.7 µM, the TGI (M14 melanoma) was 23.6 µM and the TGI (CAKI-1 renal) was 27.7 µM. For the same molecule, the TGI (MDA-N) was 6.1 µM, the TGI (MDA-MB-435) was 3.94 µM and the TGI (CCRF-CEM leukemia) was greater than 20.7 µM. It also gave a TGI (HS 578T breast) of 47.4 µM, a TGI (COLO 205 colon) of 12.1 µM and a TGI (OVCAR-8 ovarian) of 16.7 µM. For the same molecule, the TGI (SW-620 colon) was 13 µM, the TGI (UO-31 renal) was 16.7 µM and the TGI (SK-OV-3 ovarian) was 33 µM. It also gave a TGI (U251 CNS) of 27.3 µM, a TGI (SK-MEL-5 melanoma) of 6.21 µM and a TGI (SK-MEL-28 melanoma) of 31.7 µM. The TGI (SR leukemia) was greater than 48.4 µM, the TGI (NCI-H226 lung) was 36.3 µM and the TGI (SNB-19 CNS) was 30.4 µM. It also gave a TGI (MDA-MB-231 breast) of 20.9 µM, a TGI (HCT-15 colon) of 21.9 µM and a TGI (IGROV1 ovarian) of 25.9 µM. For the same molecule, the TGI (OVCAR-5 ovarian) was 32.1 µM, the TGI (NCI/ADR-RES ovarian) was 38.6 µM and the TGI (SF-295 CNS) was 30.5 µM. It also gave a TGI (UACC-257 melanoma) of 7.52 µM.
